The target in experiment [1] is T1, guinea pig liver transglutaminase (UniProt P08587).
T1 construct: guinea pig liver transglutaminase (8.5 μg); from tissue; host or cells: guinea pig liver
The experiment can be described thus: Fluorescence assay of transglutaminase-catalyzed cross-linking of 5-(biotinamido)pentylamine to C. albicans germ tube surfaces. It counts as biochemical. Particulars: C. albicans SC5314 germ tubes; EGTA 20 mM (FIG. 2B). Here is the method:
To detect germ tube surface proteins serving as glutamine donors in transglutaminase-catalyzed cross-linking reactions, a fluorescence assay using a biotinylated lysine analogue as the primary amine acceptor and liver transglutaminase was developed.
Washed M199-germinated C. albicans cells (10^8/ml), guinea pig liver transglutaminase (8.5 μg), and 5-(biotinamido)pentylamine (30 μM) (Pierce) were incubated in reaction buffer 1 (400 μl) (100 mM Tris-Cl pH 7.5, 5 mM CaCl2, 1 mM DTT, 2 mM EDTA) for 15 minutes at 37° C. Reactions were stopped with EDTA (10 mM), germ tubes were washed with distilled water, spotted onto microscope slides, air dried, incubated with avidin-FITC (1:100) (Zymed) and BSA-rhodamine (1:30) (Difco) in PBS at 37° C., washed and examined by fluorescence microscopy.

For experiment [2], the system named is adhesion of C. albicans germ tubes (UnoPP-1) to human buccal epithelial cells (BECs). The experiment can be described thus: Stabilized (covalent) adhesion of radiolabeled C. albicans germ tubes to human buccal epithelial cells. It counts as cell-based, Candida albicans. The method, then:
Mass conversion of yeasts, radiolabeled with Tran^35S-label (ICN) (5 μCi/ml), to germ tubes (5×10^6/ml) was induced in prewarmed M199 (40 ml) for 2.5 hours at 37° C. No differences in the proportion of (>95%) germ tubes or in germ tube length were seen among strains. Washed germ tubes and BECs from a healthy donor, suspended in 300 μl of reaction buffer 3 (50 mM Tris-Cl pH 7.5, 10 mM CaCl2, 1 mM EDTA, 1 mM DTT), at a germ tube/BEC ratio of 100:1, were mixed, incubated for 1 hour at 37° C. followed by reaction termination with 100 mM EGTA (75 μl). The BEC donors understood the nature of the studies and consented to provide BECs. Radioactivity of BEC fractions was determined by scintillation counting after centrifugation on 50% Percoll gradients, and germ tubes per BEC was determined using the specific activity of each strain. Background counts, determined from gradients with germ tubes only, were less than 6% of counts for germ tube/BEC mixtures and were subtracted from counts of epithelial cell-germ tube mixtures. […]
Radiolabeled germ tubes of the control strain, UnoPP-1, were incubated with BECs at a ratio of 100:1 with or without 5 or 10 mM monodansylcadaverine in reaction buffer 3, supra. […] The cell mixtures were incubated for 1 hour at 37° C., and the number of germ tubes covalently attached to BECs were determined. […]

T1 sequence (P08587 whole entry): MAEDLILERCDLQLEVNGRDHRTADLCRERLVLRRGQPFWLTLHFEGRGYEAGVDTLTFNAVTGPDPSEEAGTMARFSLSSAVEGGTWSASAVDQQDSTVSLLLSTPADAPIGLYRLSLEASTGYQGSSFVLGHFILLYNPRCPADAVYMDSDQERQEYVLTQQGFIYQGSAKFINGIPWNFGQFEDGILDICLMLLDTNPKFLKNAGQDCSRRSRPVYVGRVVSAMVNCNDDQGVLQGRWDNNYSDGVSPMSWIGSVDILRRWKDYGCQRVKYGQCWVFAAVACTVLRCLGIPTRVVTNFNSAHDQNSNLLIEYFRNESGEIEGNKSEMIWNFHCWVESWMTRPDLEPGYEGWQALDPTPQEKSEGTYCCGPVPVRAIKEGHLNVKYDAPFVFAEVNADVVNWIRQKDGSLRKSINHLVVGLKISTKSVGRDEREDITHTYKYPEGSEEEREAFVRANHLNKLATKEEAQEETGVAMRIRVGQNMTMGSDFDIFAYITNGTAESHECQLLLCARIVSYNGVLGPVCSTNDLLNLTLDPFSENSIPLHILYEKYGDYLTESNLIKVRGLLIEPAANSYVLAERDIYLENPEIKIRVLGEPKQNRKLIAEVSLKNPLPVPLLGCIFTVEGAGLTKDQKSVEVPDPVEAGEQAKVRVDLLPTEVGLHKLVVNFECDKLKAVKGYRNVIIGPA

On to `O=C(O)CN(CCOCCOCCN(CC(=O)O)CC(=O)O)CC(=O)O` [EGTA], for which the “effect on transglutaminase-mediated fluorescence labelling of germ tubes” value in experiment [1] is listed as “inhibited”.
For the compound `CN(C)c1cccc2c(S(=O)(=O)NCCCCCN)cccc12` [monodansylcadaverine], the “reduction of adhesion of germ tubes to BEC relative to DMSO control” value in experiment [2] (5 or 10 mM, UnoPP-1 germ tubes/BEC 100:1, 1 hour at 37° C., covalently attached germ tubes) is on record as “approximately 87%”.
As to `NC(=O)CI` [iodoacetamide], in experiment [1], the “effect on transglutaminase-mediated fluorescence labelling of germ tubes” value was “inhibited”. In addition, the “stabilized adhesion of UnoPP-1 to BECs with transglutaminase inhibited” value in experiment [2] (iodoacetamide 10 mM, BECs pretreated 15 minutes, CAH7-1A was 23% of UnoPP-1) was “low level of stabilized adhesion of CAH7-1A was equivalent to that of UnoPP-1”.

These data come from patent US7135182B2, “Inhibition of transglutaminase-mediated microbial interaction with a mammalian host” (priority 1998, dated 2006).
